Laboratory results published in article PMC11311250 (Organic & biomolecular chemistry, 2023).
Read-outs that look alike come from different tables or passages of the source.

Columns and labels:
[1] = amide bond, 12-membered ring
P. aeruginosa K799 = experiment: antibacterial microdilution growth inhibition; type: cell-based, Pseudomonas aeruginosa
[2] = amide bond; 12-membered ring; T3P/DIEA; DMF; 45.0 °C
[3] = T3P/DIEA, DCE, 1.0 mM, 80.0 °C, 3 steps
[4] = T3P/collidine, DCE, 1.0 mM, 80.0 °C, 3 steps

**Q.** With “(3S,6S,9R,12S)-3,9-dibenzyl-1,6,7,12-tetramethyl-1,4,7,10-tetraazacyclododecane-2,5,8,11-tetraone (cyclo (L-N-Me-Ala–L-Phe–L-N-Me-Ala-D-Phe))” as the substance, how does the ring closure, isolated yield [1, 3] read?
**A.** The ring closure, isolated yield was 5%.

**Q.** With ALAL as the substance, how does the ring closure, isolated yield [1, 4] read?
**A.** Its ring closure, isolated yield is 11%.

**Q.** For “all-L cyclo(N-Me-Leu–Phe)2 (head to tail) [pseudoxylallemycin A]”, which growth inhibition (P. aeruginosa K799) is on record?
**A.** Its growth inhibition is “failed to inhibit the growth”.

**Q.** Which ring closure, isolated yield ([1]; T3P/DIEA, DCM/DMF 9:1, 45.0 °C) does the source give for epi-pseudoxylallemycin here?
**A.** The ring closure, isolated yield was 26%.

**Q.** With epi-pseudoxylallemycin A as the substance, how does the ring closure, isolated yield [1, 4] read?
**A.** The ring closure, isolated yield was 33%.

**Q.** Which results are given for pseudoxylallemycin A?
**A.** ring closure, isolated yield [1, 3]: 18.1%; ring closure, isolated yield ([1]; T3P/DIEA, DMF, 1.0 mM, 45.0 °C, 3 steps): 11.7%; ring closure, isolated yield ([1]; T3P/DIEA, DMF, 1.0 mM, 80.0 °C, 3 steps): 14.7%; ring closure, isolated yield ([1]; T3P/DtBP, DCE, 1.0 mM, 80.0 °C, 3 steps): 19%; ring closure, isolated yield [1, 4]: 36%; ring closure, isolated yield ([1]; T3P/pyridine, DCE, 1.0 mM, 80.0 °C, 3 steps): 32%; ring closure, yield after HPLC [2]: 24%
